Results as given in ChEMBL document CHEMBL1128987, “Benzenesulfonamide-peptide conjugates as probes for secondary binding sites near the active site of carbonic anhydrase” (Bioorg Med Chem Lett, 1996).
Several values for one entry are separate records, joined by “and”; a condition that tells them apart may be missing. Equal values may be shown once. Where a SMILES comes first, the peptide text is derived from it. [ ]: non-standard residue; d: D form. The star is where a group is joined. Benzoyl(4-SO2NH2) = NS(=O)(=O)c1ccc(C(=O)*)cc1; Phe(4-Cl) = N[C@@H](Cc1ccc(Cl)cc1)C(=O)O; Nle = CCCC[C@H](N)C(=O)O

Key:
Carbonic anhydrase 2 [1] = target: T1, Carbonic anhydrase 2 (Homo sapiens, UniProt P00918)
Description: Kinetic constant for binding human carbonic anhydrase II (Kon=Kd x Koff)

Carbonic anhydrase 2 [2] = target: T1, Carbonic anhydrase 2; test: Dissociation constant against human carbonic anhydrase II at 37 degree Centigrade
Carbonic anhydrase 2 [3] = target: T1, Carbonic anhydrase 2; remark: listed apart in the source
Description: Kinetic constant for binding human carbonic anhydrase II

Carbonic anhydrase 2 [4] = target: T1, Carbonic anhydrase 2; test: Dissociation constant was determined against human carbonic anhydrase II at 37 degree Centigrade in experiment 2
Carbonic anhydrase 2 [5] = target: T1, Carbonic anhydrase 2; test: Dissociation constant was determined against human carbonic anhydrase II at 37 degree Celsius in experiment 1

Row | Kd (Carbonic anhydrase 2 [2]) | SMILES | also measured
1 | 390 nM and 360 nM | NS(=O)(=O)c1ccc(C(=O)NCC(=O)NCC(=O)NCC(=O)NCC(=O)O)cc1 ({Benzoyl(4-SO2NH2)}-GGGG-OH) | k on (Carbonic anhydrase 2 [1]): 250000 M⁻¹ s⁻¹; k off (Carbonic anhydrase 2 [3]): 0.09 s⁻¹
2 | 190 nM and 220 nM | CCCC[C@H](NC(=O)CNC(=O)CNC(=O)CNC(=O)c1ccc(S(N)(=O)=O)cc1)C(=O)O ({Benzoyl(4-SO2NH2)}-GGG[Nle]-OH) | k on (Carbonic anhydrase 2 [1]): 420000 M⁻¹ s⁻¹; k off (Carbonic anhydrase 2 [3]): 0.093 s⁻¹
3 | 340 nM | NS(=O)(=O)c1ccc(C(=O)NCC(=O)NCC(=O)N2CCC[C@H]2C(=O)O)cc1 | –
4 | 140 nM | CC(C)C(NC(=O)CNC(=O)c1ccc(S(N)(=O)=O)cc1)C(=O)O (centres undefined) | –
5 | 210 nM | Nc1ccc(C[C@H](NC(=O)CNC(=O)CNC(=O)c2ccc(S(N)(=O)=O)cc2)C(=O)O)cc1 | –
6 | 160 nM | CSCC[C@@H](NC(=O)CNC(=O)CNC(=O)c1ccc(S(N)(=O)=O)cc1)C(=O)O | –
7 | 230 nM | CC[C@H](C)[C@H](NC(=O)CNC(=O)CNC(=O)c1ccc(S(N)(=O)=O)cc1)C(=O)O | –
8 | 140 nM | CCCCC(NC(=O)CNC(=O)c1ccc(S(N)(=O)=O)cc1)C(=O)O (centres undefined) | –
9 | 290 nM | NS(=O)(=O)c1ccc(C(=O)NCC(=O)NCC(=O)N[C@@H](CO)C(=O)O)cc1 | –
10 | 130 nM | CC(C)CC(NC(=O)CNC(=O)c1ccc(S(N)(=O)=O)cc1)C(=O)O (centres undefined) | –
11 | 270 nM | NC(=O)CC[C@H](NC(=O)CNC(=O)CNC(=O)c1ccc(S(N)(=O)=O)cc1)C(=O)O | –
12 | 280 nM | NS(=O)(=O)c1ccc(C(=O)NCC(=O)NC(CO)C(=O)O)cc1 (centres undefined) | –
13 | 220 nM | CSCC[C@@H](NC(=O)CNC(=O)CNC(=O)CNC(=O)c1ccc(S(N)(=O)=O)cc1)C(=O)O | –
14 | 170 nM | COc1ccc(C[C@H](NC(=O)CNC(=O)CNC(=O)CNC(=O)c2ccc(S(N)(=O)=O)cc2)C(=O)O)cc1 | –

The remaining lines, values behind:

Row | SMILES | Kd (Carbonic anhydrase 2 [2]) | also measured
15 | NS(=O)(=O)c1ccc(C(=O)NCC(=O)NCC(=O)NCC(=O)N[C@@H](Cc2ccc(Cl)cc2)C(=O)O)cc1 ({Benzoyl(4-SO2NH2)}-GGG[Phe(4-Cl)]-OH) | 96 nM and 99 nM | k on (Carbonic anhydrase 2 [1]): 850000 M⁻¹ s⁻¹; k off (Carbonic anhydrase 2 [3]): 0.084 s⁻¹
16 | CCCCC(NC(=O)c1ccc(S(N)(=O)=O)cc1)C(=O)O (centres undefined) | 5 nM | k off (Carbonic anhydrase 2 [3]): 0.011 s⁻¹
17 | NS(=O)(=O)c1ccc(C(=O)NC(Cc2ccc(Cl)cc2)C(=O)O)cc1 (centres undefined) | 15 nM and 14 nM | k off (Carbonic anhydrase 2 [3]): 0.022 s⁻¹
18 | NS(=O)(=O)c1ccc(C(=O)NCC(=O)O)cc1 | – | Kd (Carbonic anhydrase 2 [4]): 330 nM; Kd (Carbonic anhydrase 2 [5]): 310 nM; k off (Carbonic anhydrase 2 [3]): 0.12 s⁻¹
19 | CC(C)C(NC(=O)c1ccc(S(N)(=O)=O)cc1)C(=O)O (centres undefined) | 15 nM | –
20 | NC(=O)CCC(NC(=O)c1ccc(S(N)(=O)=O)cc1)C(=O)O (centres undefined) | 140 nM | –
21 | NS(=O)(=O)c1ccc(C(=O)NCC(=O)NCC(=O)N[C@@H](Cc2ccc(Cl)cc2)C(=O)O)cc1 | 94 nM | –
22 | NS(=O)(=O)c1ccc(C(=O)NC(CC(=O)O)C(=O)O)cc1 (centres undefined) | 1100 nM | –
23 | COc1ccc(CC(NC(=O)CNC(=O)c2ccc(S(N)(=O)=O)cc2)C(=O)O)cc1 (centres undefined) | 170 nM | –
24 | CCC(C)C(NC(=O)c1ccc(S(N)(=O)=O)cc1)C(=O)O (centres undefined) | 9 nM | –
